# “And” between values parts separate entries of the source, which are not always exact repeats. Identical values can stand only once. Where a SMILES comes first, the peptide text is derived from it. Where no end group is shown, it is not given here.
# What was measured:
# [1] = Pilot study with 4 mice (10 days): blood cell counts after hydrogel implant; assay type: in vivo; details: 30 μL gel implant
# Description: There were no behavioral changes or weight loss following implantation for up to 2 months, and there was no significant difference in red or white blood cell counts or blood chemistry (liver and kidney function) between mice implanted with hydrogels and sham operated mice.
# plasmid DNA = experiment: Composite peptide-DNA hydrogels: DNA loading, encapsulation and release; assay type: physicochemical; details: for amount of DNA that can be incorporated into the composite hydrogel: plasmid DNA loading
# Protocol: Various peptides (AcLD6, i.e. Ac-LIVAGD, SEQ ID NO: 65; AcLK6, i.e. Ac-LIVAGK, SEQ ID NO: 66; AcLS6, i.e. Ac-LIVAGS, SEQ ID NO: 67) were used to encapsulate plasmid DNA, forming composite peptide-DNA hydrogels (A). […] When the composite hydrogels were incubated with DNAse, digested DNA fragments were not observed, compared to the naked DNA control. […] Potential applications include synthetic cell culture substrates that mediate sustained DNA, mRNA, siRNA and short hairpin RNA delivery (C).
# The peptide sequence (particularly the polar head group) and concentration plays a significant role in determining the maximum amount of DNA that can be incorporated into the composite hydrogel.
# Even after 10 days, at least 80% of the DNA loaded remained in composite hydrogel. In particular, the Ac-LIVAGK (L)-DNA hydrogel retained 95% of the DNA added. The release of the nucleic acid can potentially be modulated by the peptide composition.
# [2] = test system: human derived adipose stem cells; experiment: Subcutaneous implantation of hydrogels seeded with human derived adipose stem cells; assay type: in vivo; details: nude mice, after 45 days
# Description: FIG. 16. In vivo scaffold for adipose tissue regeneration Fat pad observed under the skeletal muscle layer in the region of the human adipose stem cell (hASC) implant 45 days post-implantation (A-C). The transplanted cells have the appearance of normal mature adipose tissue (D)—adipocytes with dark nuclei at edge, cells filled with fat.
# [3] = Peptide stability studies (TGA, 1H-NMR, HPLC-MS after UV or autoclave treatment); assay type: physicochemical; details: for decomposition by 1H-NMR: UV treated (2 h, 254 nm) or autoclaved (30 min, 120° C.); for degradation by HPLC-MS: following UV and autoclave treatment
# [4] = SCID mice, listed as Ac-LIVAGK (L) gel
Compound,"erythrocytes [1, 4]","lymphocytes [1, 4]","monocytes [1, 4]","thrombocytes [1, 4]",basophils ([1]; normal mouse) [K/uL],eosinophils ([1]; normal mouse) [K/uL],erythrocytes ([1]; normal mouse) [M/uL],lymphocytes ([1]; normal mouse) [K/uL],monocytes ([1]; normal mouse) [K/uL],neutrophils ([1]; normal mouse) [K/uL],thrombocytes ([1]; normal mouse) [M/uL],encapsulating and trapping of plasmid DNA (plasmid DNA; composite peptide-DNA hydrogel),release of the DNA (plasmid DNA; over the course of several days),amount of DNA that can be incorporated into the composite hydrogel (plasmid DNA),adipose tissue formation under the implant site [2],decomposition by 1H-NMR [3],degradation by HPLC-MS [3]
"CC[C@H](C)[C@H](NC(=O)[C@H](CC(C)C)NC(C)=O)C(=O)N[C@H](C(=O)N[C@@H](C)C(=O)NCC(=O)N[C@@H](CCCCN)C(=O)O)C(C)C [AcLK6, Ac-LIVAGK] (Ac-LIVAGK-OH)",9.29 M/uL and 11.33 M/uL,0.88 K/uL and 0.9 K/uL,0.22 K/uL and 0.12 K/uL,0.607 M/uL and 0.978 M/uL,0.02,0.11,10.65,3.76,0.42,1.6,0.833,extremely efficient in encapsulating and trapping the DNA,minimal release of the DNA,could integrate the highest concentration of DNA,formation of fat pads,,
Ac-IVD (Ac-Ile-Val-Asp) [AcID3],,,,,,,,,,,,,,,,do not decompose,minimal
Ac-LIVAGD [AcLD6],,,,,,,,,,,,,,lowest threshold for DNA loading,,do not decompose,minimal

# From US10449257B2, “Self-assembled composite ultrasmall peptide-polymer hydrogels” (Agency for Science, Technology and Research, priority 2011, dated 2019)
